The values below come from US5776943A, “Rapamycin metabolites” (American Home Products Corporation, priority 1991, dated 1998).

Read-outs that look alike come from different tables or passages of the source.

The assay has as its system Human lymphocytes. The assay can be described thus: PHA-stimulated human lymphocyte proliferation (3H-thymidine incorporation). In kind it is cell-based. The protocol:
Immunosuppressive activity of the collected fractions was evaluated in an in vitro standard pharmacological test procedure designed to measure lymphocyte proliferation. The procedure used is briefly described below.
Human lymphocytes were isolated from blood anticoagulated with heparin. Blood was centrifuged with ficoll at 545 g at room temperature for 20 min. The lymphocyte layer was washed with phosphate buffered saline by centrifugation at 280 g for 10 min and subsequently with the culture medium (430 g, 10 min). The cells were adjusted to a concentration of 10^6 cells/mL with RPMI 1640 medium supplemented with 2 mM glutamine, 100 U/mL penicillin, 100 μg streptomycin and 10% fetal calf serum. For each fraction evaluated, the 1 g/L solution in methanol was diluted with culture medium to provide a concentration of 1 mg/L. The concentration of metabolite in each fraction was determined by HPLC comparison with an external rapamycin standard curve. A solution composed of 100 μL of the cell suspension, containing 5 mg/L PHA, and 100 μL of the metabolite solution were pipetted into the wells of a 96-well plate. The cells were incubated for 44 h at 37° C. in a 5% CO2 atmosphere. After addition of 1 μCi ^3 H-thymidine/well the cells were incubated for additional 4.5 h. […] The thawed cells were harvested and ^3 H-thymidine incorporation was determined by liquid scintillation counting.
In general terms: Uptake of a labelled nucleoside into DNA is a usual measure of proliferation.

One may read the IC50 as the point on the concentration scale where inhibition reaches its midpoint. As to `CO[C@H]1C[C@@H]2CC[C@@H](C)[C@@](O)(O2)C(=O)C(=O)N2CCCC[C@H]2C(=O)O[C@H]([C@H](C)C[C@@H]2CC[C@@H](O)[C@H](O)C2)CC(=O)[C@H](C)/C=C(\C)[C@@H](O)[C@@H](OC)C(=O)[C@H](C)C[C@H](C)/C=C/C=C/C=C/1C` [Example 1, 41-O-Desmethyl rapamycin], the IC50 (lymphocyte proliferation, human lymphocytes from heparin blood, PHA, incubated 44 h at 37° C., then 3H-thymidine 4.5 h, read-out: IC50) came to 1 nM.
On to `CO[C@H]1C[C@@H]2CC[C@@H](C)[C@@](O)(O2)C(=O)C(=O)N2CCCC[C@H]2C(=O)O[C@H]([C@H](C)C[C@@H]2CC[C@@H](O)[C@H](OC)C2)CC(=O)[C@H](C)/C=C(\C)[C@@H](O)[C@@H](OC)C(=O)[C@H](C)C[C@H](C)/C=C/C=C/C=C/1C` [Rapamycin, rapamycin], for which, under “Homo sapiens, Lymphocyte”, the IC50 is 0.1 nM.
